This is an account of results in patent US9988343B2, “Inhibitors of histone deacetylase” (Dana-Farber Cancer Institute, Inc., priority 2013, dated 2018).

Common to all, as to format: cell-based, human
The test system of one data set is RPMI8226 cells. The data set is described as follows: Combination with carfilzomib, MTT assay. Conditions: RPMI8226, Compound 10 5, 10, 20 um + carfilzomib 3, 5, 7.5 nM, 24 h (FIG. 10). Here is the method:
All experiments were performed 3 times in quadruplicate. Data represent mean+/−SD (FIG. 10). The y-axis (% control) indicates the relative number of viable cells after each treatment.
A general note: Tetrazolium assays rely on reduction of a dye to a coloured formazan, in cell work by metabolically active cells.

The subject of a further data set is MM.1S cells. The data set is described as follows: Immunoblot of caspase-3 and PARP cleavage. Conditions: 15 μM (FIG. 6E). For orientation: Immunoblotting shows a protein as a band on a membrane.
A further data set deals with pSTAT3 (Tyr705). The data set is described as follows: Immunoblot of STAT3 phosphorylation in MM cells. The conditions noted are these: MM.1S, 10 and 20 μM, 10 hours, then IL-6 10 ng/mL 4 hours (FIG. 6G). How it is done:
MM cells were harvested and lysed using sodium dodecyl sulfate-polyacrylamide gel electrophoresis (SDS-PAGE) sample buffer containing 60 mM Tris-HCl, pH 6.8, 2% SDS, 10% glycerol, 0.005% bromophenol blue, 5 mM ethylenediaminetetraacetic acid, 5 mM NaF, 2 mM […], 1 mM phenylmethylsulfonyl fluoride (PMSF), 5 μg/mL leupeptin, and 5 μg/mL aprotinin; and then heated at 100° C. for 5 min. After the determination of protein concentration using DC protein assay (Bio-Rad, Hercules, Calif.), β-mercaptoethanol (β-ME) was added to the whole-cell lysates to a 2% final β-ME concentration. The whole-cell lysates were subjected to SDS-PAGE, transferred to nitrocellulose membranes (Bio-Rad, Hercules, Calif.) or polyvinylidene fluoride membranes (Millipore, Billerica, Mass.), and immunoblotted with anti-histone H3, -HDAC1, -HDAC2, -HDAC3, -Acetyl-histone H2A (Lysine 5) (Ac-H2AK5), -Acetyl-histone H2B (lysine 5) (Ac-H2 BK5), -Acetyl-histone H3 (lysine 9) (Ac-H3K9), -Acetyl-histone H4 (lysine 8) (Ac-H4K8), -glyceraldehyde-3-phosphate dehydrogenase (GAPDH), -poly (ADP-ribose) polymerase (PARP), -caspase-3, -caspase-8, -caspase-9, -Signal transducers and activators of transcription 3 (STAT3), -phospho-STAT3 (pSTAT3) (tyrosine 705), -pSTAT3 (serine 727), -p21, -Janus kinase 2 (JAK2), -acetylated-Lysine (Ac-K), and anti-phosphorylated-tyrosine antibodies (Abs; Cell Signaling Technology, Beverly, Mass.).
MM.1S, U266, and INA6 cells were cultured with DMSO control or LBH589 (50 and 100 nM) for 8 h.
MM.1S cells pretreated with or without 50 nM LBH589 for 8 hours were then treated with IL-6 (10 ng/mL) or BMSC culture supernatants (#1 and #2) for 15 minutes. Whole cell lysates were subjected to immunoblotting with anti-pSTAT3 (Tyr705) and STAT3 Abs.
In addition, INA-6 cells were cultured with DMSO control, LBH589 (50 nM), TSA (1 μM) or SAHA (2 μM) for 8 hours. Whole cell lysates were subjected to immunoblotting with anti-pSTAT3 (Tyr705), STAT3, and GAPDH Abs.
Whole cell lysates were subjected to immunoblotting with anti-pSTAT3 (Tyr705), -STAT3, -pERK1/2 (Thr202/204), and -ERK1/2 Abs (FIG. 6G).
See, e.g., Hideshima et al. Blood. 2006, 107:4053-4062. Since bortezomib upregulates activated STAT3 in head and neck squamous cell carcinoma (see, e.g., Li et al. Mol Cancer Ther 2009. 8:2211-2220), experiments were conducted to test whether bortezomib enhances p-STAT3 in MM cells. RPMI8226 cells were infected with Luc, HDAC1 (sh1), HDAC2 (sh1) or HDAC3 (sh1) shRNAs and then treated with or without bortezomib (5 nM) for 6 hours. Whole cell lysates were subjected to immunoblotting with anti-STAT3, -pSTAT3 (Tyr705), -pERK1/2 (Thr202/204) and -ERK1/2 Abs.

For another data set, the system named is pERK1/2 (Thr202/204). The data set is described as follows: Immunoblot of ERK phosphorylation. Conditions: MM.1S, 10 and 20 μM, 10 hours, then IL-6 10 ng/mL 4 hours (FIG. 6G).

For `Nc1ccccc1NC(=O)c1cnccn1` [Compound 10, N-(2-aminophenyl)pyrazine-2-carboxamide], in the data set on RPMI8226 cells, the “cytotoxicity induced by carfilzomib” value is reported as “enhanced the cytotoxicity of carfilzomib”. Besides, the “caspase-3/PARP cleavage (apoptosis)” value in the data set on MM.1S cells is on record as “induces caspase-dependent apoptosis”. In addition, the p-STAT3 entry in the data set on pSTAT3 (Tyr705) is reported as “markedly downregulated p-STAT3”. Besides, the p-ERK1/2 result in the data set with pERK1/2 (Thr202/204) is on record as “without affecting p-ERK1/2”.
